Source: patent US7247615B2, “Peptide agonists of prostate-specific antigen and uses therefor” (priority 2001, dated 2007)
“And” between values parts separate entries of the source, which are not always exact repeats. Equal entries are not always repeated.

How the values were obtained:
[1] = system: T-PSA-3 cells; assay: Cytometric Bead Array cytokine production by peptide-stimulated T cells; type: cell-based, human
Method: (§1) Detection of Cytokines. Supernatant of T cells exposed for 24 h to peptide-pulsed infected DC, rV-PSA infected DC, or rV-PSA-3A infected DC, in IL-2-free medium at various responder: stimulator ratios, were screened for secretion of IFN-γ using an ELISA kit (R & D Systems, Minneapolis, Minn.). The results were calculated as pg/ml. A Cytometric Bead Array (CBA) system (BD PharMingen, San Diego, Calif.) was also used to determine the secretion of multiple cytokines by specific T cell lines. The CBA system uses the fluorescence detection by flow cytometry to measure soluble analytes in a particle-based immunoassay. The BD human Th1/Th2 cytokine CBA Kit was employed to measure IL-2, IL-4, IL-5, IL-10, TNF-α, and IFN-γ protein levels in a single sample. The cytokine capture beads were mixed with PE-conjugated detection antibodies and then incubated with recombinant cytokine standards or test samples to form sandwich complexes. The samples results were generated in graphical and tabular format using BD CBA analysis software. The results were calculated as pg/ml.
The cytokine profile of T cells stimulated with APCs pulsed with either the PSA-3 or the PSA-3A peptide was then analyzed. The T cell line derived using the PSA-3 peptide was used in these studies, and the APCs used were autologous B cells. A Cytometric Bead Array (CBA) assay was used for analysis (see Examples section) using supernatant fluids obtained 24 h after stimulation. FIGS. 6A–6C illustrate […] of the 10 internal standards used for the calibration of the results obtained in this assay. FIGS. 6D–6F show the levels of each of six cytokines produced by T cells stimulated with APCs pulsed with no peptide, PSA-3A peptide, and PSA-3 peptide, respectively. […] The results obtained for IL-5 will be discussed below (Conclusions section).

[2] = system: C1R-A2 cells; assay: 111In release cytotoxic assay, peptide-pulsed targets; type: cell-based, human
[3] = system: V8T cells; type: cell-based, human
[4] = system: T-PSA-3 cells; type: cell-based, human
[5] = system: HLA-A2/K^b transgenic mice; assay: Immunization of HLA-A2.1/Kb transgenic mice with peptide-pulsed DCs, IFN-γ production by T cells; type: in vivo, mouse; details: 24 h
Text: Transgenic Mice. HLA-A2.1/K^b transgenic mice were kindly provided by Dr. L. Sherman (Scripps Laboratories, San Diego, Calif.). Transgenic mice express the product of the HLA-A2.1/Kb chimeric gene in which the alpha-3 domain of the heavy chain is replaced by mouse H-2/K^b domain, but the HLA-A2.1 alpha-1 and alpha-2 domains are unaltered (A. Vitiello et al., 1991, J. Exp. Med. 173:1007–1015; V. H. Engelhard et al., 1991, J. Immunol. 46:1226–1232).
In Vivo Immunization and Murine T cell Cultures. Three groups of HLA-A2.1/K^b transgenic mice (three mice per group) were immunized s.c. (subcutaneously) in the base of the tail with PSA-3 peptide-pulsed HLA-A2.1/K^b DC, PSA-3A peptide-pulsed DCs from HLA-A2.1/K^b transgenic mice, or DCs only. Peptides were used at a concentration of 50 μg/ml and DCs were used at 1×10^6 cell/mouse/injection. A total of three injections were given to each animal, 2 weeks apart. Mice injected with DCs only were used as controls. Mice were sacrificed 7 days after the last injection, and spleen cells were restimulated in vitro with 25 μg/ml of PSA-3 or PSA3A peptide with irradiated syngeneic spleen cell for 6 days. The cytokine production of these bulk cultures was tested. Peptide-pulsed Jurkat A2 (JA2 K^b) cells were used as stimulator cells. Jurkat 0201 K^b cells are stable transfectants of the human T cell leukemia line, Jurkat, which express the product of HLA-A0201K^b climeric gene (L. A. Sherman et al., 1992, Science 258:815–818).
The HLA-A2/K^b transgenic mouse has been previously reported to aid in the determination of the immunogenicity of HLA-A2 peptides for humans. This in vivo system was thus employed to further analyze and compare the immunogenicity of the PSA-3A peptide with that of the native PSA-3 peptide. DCs from the HLA-A2/K^b transgenic mice were pulsed with either the PSA-3 or the PSA-3A peptide and used to vaccinate HLA-A2b mice. DCs alone (no peptide) were also used as a control vaccine. After three vaccinations at 2-week intervals, T cells were isolated from splenocytes obtained 2 weeks after the last vaccination. The T cells were then incubated with Jurkat A2/K^b cells pulsed with the PSA-3 peptide, the PSA-3A peptide, or no peptide, and production of INF-γ was measured from supernatants after 24 h.

[6] = system: T-PSA-3A cells; assay: IFN-γ production by T cell line stimulated with peptide-pulsed DCs (ELISA); type: cell-based, human; details: peptide 25 μg/ml
Method: as §1
Table 2: Production of IFN-γ by a T cell line stimulated with PSA-3 or agonist PSA-3A peptides. The PSA-specific T cell line T-PSA-3A was used as effector cells at IVS-3. T-PSA-3A cells were stimulated with irradiated HLA-A2 positive allogeneic DCs either pulsed with PSA-3 or PSA-3A peptide at a concentration of 25 μg/ml and an effector-to-APC ratio of 10:1. After 24-h culture supernatants were collected and screened for the secretion of IFN-γ. APC=antigen […].

[7] = T-PSA-3 + peptide-pulsed autologous B cells, 24 h supernatant

Sequence: VLSNDVCAQV (SEQ ID NO:3) [PSA-3A]
- Production of IL-5 ([1]; T cells stimulated with PSA-3A as compared to PSA-3 peptide): increase
- Production of IFN-γ [1, 7]: greater production
- Production of IL-2 [1, 7]: greater production
- Production of IL-4 [1, 7]: Low or undetectable levels
- Production of IL-10 [1, 7]: Low or undetectable levels
- Production of TNF-α [1, 7]: No TNF-α could be detected
- Fold less peptide than PSA-3 peptide necessary for lysis ([2]; T-PSA-3A line, C1R-A2 targets, E:T 25:1, FIG. 4A): approximately 8 fold
- Fold less peptide required to achieve similar levels of lysis ([2]; T-PSA-3 line, C1R-A2 targets, E:T 25:1): approximately 8 fold
- Lysis of peptide-pulsed C1R-A2 cells by T-PSA-3A line ([2]; peptide 25 μg/ml, IVS-3, two E:T ratios, FIG. 3A): to a greater extent than cells pulsed with the PSA-3 peptide
- Lysis of peptide-pulsed C1R-A2 cells by T-PSA-3 line ([2]; peptide 25 μg/ml, IVS-3, two E:T ratios, FIG. 3B): to a greater extent than those pulsed with the PSA-3A peptide
- Production of IFN-γ by V8T [3]: <13.0 pg/mL
- Production of IFN-γ by None (no T cells) [4]: <13.0 pg/mL
- Production of IFN-γ by T-PSA-3 [4]: 946.6 pg/mL and 915.9 pg/mL
- Production of IFN-γ ([5]; label = peptide pulsed on immunizing DCs, Jurkat A2/K^b cells pulsed with PSA-3A (25 μg/ml)): 6,218.9 pg/ml/10^6 cells
- Production of IFN-γ ([5]; label = peptide pulsed on immunizing DCs, Jurkat A2/K^b cells with no peptide): <37.0 pg/ml/10^6 cells
- Production of IFN-γ ([5]; label = peptide pulsed on immunizing DCs, T cells restimulated with Jurkat A2/K^b cells pulsed with PSA-3 (25 μg/ml)): 5,094.3 pg/ml/10^6 cells
- Production of IFN-γ ([5]; mice immunized with DCs (no peptide), label = peptide pulsed on Jurkat A2/K^b cells): <37.0 pg/ml/10^6 cells
- PRODUCTION OF IFN-γ ([6]; APC DCs, T-PSA-3A T cells present, effector-to-APC 10:1, 24 h, IVS-3): 566 pg/mL
- PRODUCTION OF IFN-γ ([6]; APC DCs, no T cell, 24 h): <15 pg/mL
- PRODUCTION OF IFN-γ ([6]; no APC, T-PSA-3A T cells present, 24 h): <15 pg/mL
